{"source": "patent US6297235A", "about": "“Triazolopyridazine derivatives for treating anxiety and enhancing cognition” (Merck Sharp & Dohme Ltd., priority 1997, dated 2001)", "origin": "cited, not measured here", "key": {"[1]": {"settings": "in vivo"}, "[2]": {"settings": "reported by McNamara and Skelton, Psychobiology, 21:101-108"}}, "data": [{"smiles": "COC(=O)c1cc2c(cn1)[nH]c1ccccc12", "note": "[β-CCM]", "values": [{"measurement": "proconvulsant or convulsant effect", "setting": "[1]", "result": "proconvulsant or convulsant"}, {"measurement": "spatial learning in the Morris watermaze", "setting": "[2]", "result": "enhanced spatial learning"}]}]}
